Read-outs that look alike come from different tables or passages of the source.
Legend:
B16 melanocytes = assay: Cell viability, MTT reduction test; format: cell-based
Description: The melanocytes were seeded in a 96-well plate and were cultured for 24 h (37° C., 5% CO2, DMEM 1 g/L glucose without phenol red supplemented with glucose at 3 g/L, L-glutamine at 2 mM, penicillin at 50 U/mL, streptomycin at 50 μg/mL, foetal calf serum (FCS) at 10%). After incubation, the culture medium was then replaced with culture medium supplemented or not supplemented (unstimulated control) with a stable derivative of α-MSH and containing or not containing (controls) the test compounds or the reference (kojic acid at 25, 100, 400, 800 μg/mL). Each experiment was carried out with n=3, apart from the controls carried out with n=6, then the cells were incubated for 72 h. Wells without cells received in parallel the same quantities of medium supplemented or not supplemented with NDP-MSH and containing or not containing the test compounds or the reference in order to quantify the background noise associated with the presence of the compounds. At the end of the treatment, the cells were incubated in the presence of MTT (tetrazolium salt), the transformation of which to blue crystals of formazan is proportional to the activity of succinate dehydrogenase (mitochondrial enzyme). After dissociation of the cells, the formazan was dissolved in DMSO medium and the optical density (OD), representative of the number of living cells and of their metabolic reactivity, was measured with a microplate reader at 540 nm (VERSAmax, Molecular Devices). The operating conditions are the same as in Example 12.

[1] = test system: B16 melanocytes stimulated with NDP-MSH; assay: Anti-melanogenesis activity: melanin synthesis in B16 melanocytes stimulated with NDP-MSH; format: cell-based
Description: The depigmenting effect was evaluated on a line of type B16 melanocytes stimulated with NDP-MSH, (natural hormone stimulating melanogenesis; Melanocyte Stimulating Hormone, [Nle, DPhe]-α-MSH). Melanin synthesis was evaluated.
The anti-melanogenesis activity of the compounds in solution in DMSO was evaluated by measuring melanin synthesis in a model of B16 melanocytes stimulated with a stable derivative of α-MSH (natural melanogenesis stimulating hormone): NDP-MSH.
The melanocytes were seeded in a 96-well plate and were cultured for 24 h (37° C., 5% CO2, DMEM 1 g/L glucose without phenol red supplemented with glucose at 3 g/L, L-glutamine at 2 mM, penicillin at 50 U/mL, streptomycin at 50 μg/mL, foetal calf serum (FCS) at 10%). After incubation, the culture medium was then replaced with culture medium supplemented or not supplemented (unstimulated control) with a stable derivative of α-MSH and containing or not containing (controls) the test compounds or the reference (kojic acid at 25, 100, 400, 800 μg/mL). Each experiment was carried out with n=3, apart from the controls carried out with n=6, then the cells were incubated for 72 h. Wells without cells received in parallel the same quantities of medium supplemented or not supplemented with NDP-MSH and containing or not containing the test compounds or the reference in order to quantify the background noise associated with the presence of the compounds.
After incubation for 72 hours, the total melanin (intra- and extracellular) was quantified by measuring the absorption at 405 nm of each sample (direct reading of the culture plates) against a standard range of melanin (melanin concentrations tested from 0.78 to 100 μg/mL). The background noise, measured in the wells without cells, was subtracted from the measured values so as only to take into account the effect connected with melanin production, without taking into account the possible interference connected with the presence of the compounds. The results were expressed as percentage of melanin relative to the control as well as percentage inhibition.
The operating conditions are the same as in Example 12.

[2] = Melanocyte, NDP-MSH stimulated B16, 72 h, Table 2, read-out: Standardized data Inhibition (%) (melanin)
[3] = Melanocyte, 30 μM, NDP-MSH stimulated B16, 72 h, Table 2, read-out: Standardized data Inhibition (%) (melanin)
[4] = Melanocyte, 30 μM, comparison with 2 reference molecules, Table 3, read-out: Standardized data Inhibition (%) (melanin)
[5] = Melanocyte, 100 μM, comparison with 2 reference molecules, Table 3, read-out: Standardized data Inhibition (%) (melanin)
[6] = Melanocyte, 100 μM, NDP-MSH stimulated B16, 72 h, Table 2, read-out: Standardized data Inhibition (%) (melanin)
[7] = 30 μM, NDP-MSH stimulated B16, 72 h, Table 2
[8] = 100 μM, NDP-MSH stimulated B16, 72 h, Table 2

SMILES	Viability (MTT) % stimulated control (B16 melanocytes; 30 μM, B16, 72 h, Table 2) [%]	inhibition at 30 µM [1, 3] [%]	Viability (MTT) % stimulated control (B16 melanocytes; 100 μM, B16, 72 h, Table 2) [%]	inhibition at 100 µM [1, 6] [%]	other results
CCC(C)(C)c1ccc(OCC(=O)c2ccccc2O)cc1 [Compound 44]	80	117	–	–	Viability (MTT) % stimulated control (B16 melanocytes; 10 μM, B16, 72 h, Table 2): 89%; inhibition at 10 µM [1, 2]: 24%
CCCCc1ccc(O)cc1O [Ref 1, 4-(2,4-dihydroxyphenyl)butane, reference compound]	–	–	–	–	inhibition at 30 µM [1, 4]: 82%; inhibition at 100 µM [1, 5]: 100%
COc1ccc(OCCc2ccccc2OC)cc1 [Compound 14]	89	-22	80	100	–
CC(C)(C)c1ccc(OCCc2ccccc2O)cc1 [Compound 47]	18	116	–	–	Viability (MTT) % stimulated control (B16 melanocytes; 3 μM, B16, 72 h, Table 2): 116%; Viability (MTT) % stimulated control (B16 melanocytes; 10 μM, B16, 72 h, Table 2): 89%; inhibition at 3 µM [1, 2]: 75%; inhibition at 10 µM [1, 2]: 111%
CC(=O)Nc1ccc(OCCc2ccccc2OC(C)=O)cc1 [Compound 22]	97	-3	86	61	–
CC(C)c1ccc(OCC(=O)c2ccccc2O)cc1 [Compound 40]	90	58	–	–	Viability (MTT) % stimulated control (B16 melanocytes; 10 μM, B16, 72 h, Table 2): 102%; inhibition at 10 µM [1, 2]: 5%
COc1ccccc1C1(COc2ccc(F)cc2)CC1 [Compound 18]	80	-21	75	105	–
COc1ccc(OCCc2ccccc2O)cc1 [Compound 4]	97	–	54	–	Standardized data Inhibition (%) (melanin) [1, 7]: 95%; Standardized data Inhibition (%) (melanin) [1, 8]: 111%
Fc1ccc(CCOc2ccccc2OCc2ccccc2)cc1 [Compound 25]	93	46	–	–	–
Oc1ccc(OCCc2ccccc2F)cc1 [Compound 27]	77	95	–	–	–
O=[N+]([O-])c1ccc(OCCc2ccccc2O)cc1 [Compound 19]	91	82	0	111	–
Fc1ccc(OCCc2ccccc2Br)cc1 [Compound 8]	94	–	93	–	Standardized data Inhibition (%) (melanin) [1, 7]: −27%; Standardized data Inhibition (%) (melanin) [1, 8]: 50%
CC(C)c1ccc(OCCc2ccccc2O)cc1 [Compound 39]	86	119	–	–	Viability (MTT) % stimulated control (B16 melanocytes; 3 μM, B16, 72 h, Table 2): 119%; Viability (MTT) % stimulated control (B16 melanocytes; 10 μM, B16, 72 h, Table 2): 101%; inhibition at 3 µM [1, 2]: 70%; inhibition at 10 µM [1, 2]: 111%
Oc1ccccc1C(O)COc1ccc(F)cc1 (stereo not drawn) [Compound 24]	76	-12	78	84	–
COc1ccccc1OCC(O)c1ccccc1O (stereo not drawn) [Compound 125]	90	13	–	–	–
Oc1ccccc1CCOc1ccc(Br)cc1 [Compound 3]	96	110	0	112	–

SMILES	Viability (MTT) % stimulated control (B16 melanocytes; 30 μM, B16, 72 h, Table 2) [%]	inhibition at 30 µM [1, 3] [%]	Viability (MTT) % stimulated control (B16 melanocytes; 100 μM, B16, 72 h, Table 2) [%]	inhibition at 100 µM [1, 6] [%]	other results
CCC(C)(C)c1ccc(OCCc2ccccc2O)cc1 [Compound 43]	9	120	–	–	Viability (MTT) % stimulated control (B16 melanocytes; 3 μM, B16, 72 h, Table 2): 116%; Viability (MTT) % stimulated control (B16 melanocytes; 10 μM, B16, 72 h, Table 2): 90%; inhibition at 3 µM [1, 2]: 88%; inhibition at 10 µM [1, 2]: 119%
O=c1cc(CO)occ1O [Kojic acid, reference compound]	–	–	–	–	Viability (MTT) % stimulated control (B16 melanocytes; 25 μg/mL, B16, 72 h, Table 2): 85%; Viability (MTT) % stimulated control (B16 melanocytes; 100 μg/mL, B16, 72 h, Table 2): 76%; Viability (MTT) % stimulated control (B16 melanocytes; 400 μg/mL, B16, 72 h, Table 2): 76%; inhibition at 25 µg/mL ([1]; Melanocyte, 25 μg/mL, NDP-MSH stimulated B16, 72 h, Table 2, read-out: Standardized data Inhibition (%) (melanin)): 24%; inhibition at 100 µg/mL ([1]; Melanocyte, 100 μg/mL, NDP-MSH stimulated B16, 72 h, Table 2, read-out: Standardized data Inhibition (%) (melanin)): 78%; inhibition at 400 µg/mL ([1]; Melanocyte, 400 μg/mL, NDP-MSH stimulated B16, 72 h, Table 2, read-out: Standardized data Inhibition (%) (melanin)): 90%
CC(=O)OC[C@H]1OC(Oc2ccccc2CCOc2ccc(F)cc2)[C@H](OC(C)=O)[C@@H](OC(C)=O)[C@@H]1OC(C)=O (stereo partly drawn) [Compound 30]	88	13	–	–	–
Oc1ccccc1CCOc1ccc(Cl)cc1 [Compound 31]	88	109	–	–	Viability (MTT) % stimulated control (B16 melanocytes; 3 μM, B16, 72 h, Table 2): 91%; Viability (MTT) % stimulated control (B16 melanocytes; 10 μM, B16, 72 h, Table 2): 104%; inhibition at 3 µM [1, 2]: 20%; inhibition at 10 µM [1, 2]: 70%
Fc1ccc(OCCc2ccccc2C(F)(F)F)cc1 [Compound 10]	87	-11	91	27	–
Cc1ccc(OCCc2ccccc2O)cc1 [Compound 2]	108	100	34	112	–
CCOc1ccc(OCC(O)c2ccccc2O)cc1 (stereo not drawn) [Compound 57]	97	47	–	–	–
CCCc1ccc(OCCc2ccccc2O)cc1 [Compound 130]	81	116	–	–	Viability (MTT) % stimulated control (B16 melanocytes; 3 μM, B16, 72 h, Table 2): 98%; Viability (MTT) % stimulated control (B16 melanocytes; 10 μM, B16, 72 h, Table 2): 89%; inhibition at 3 µM [1, 2]: 72%; inhibition at 10 µM [1, 2]: 110%
Oc1ccccc1CCOc1ccc(OCc2ccccc2)cc1 [Compound 20]	59	115	–	–	Viability (MTT) % stimulated control (B16 melanocytes; 3 μM, B16, 72 h, Table 2): 106%; Viability (MTT) % stimulated control (B16 melanocytes; 10 μM, B16, 72 h, Table 2): 84%; inhibition at 3 µM [1, 2]: 83%; inhibition at 10 µM [1, 2]: 108%
Cc1cccc(CCOc2ccc(F)cc2)c1 [Compound 11]	83	-2	109	44	–
CC(=O)O[C@@H]1[C@@H](OC(C)=O)[C@@H](OC(C)=O)C(Oc2ccccc2CCOc2ccc(F)cc2)O[C@H]1C (stereo partly drawn) [Compound 127]	90	29	–	–	–
COc1ccc(CCCc2ccc(O)cc2O)c(OC)c1C [Ref 2, 1-(2,4-dihydroxyphenyl)-3-(2,4-dimethoxy-3-methylphenyl)propane, reference compound]	–	–	–	–	Viability (MTT) % stimulated control (B16 melanocytes; 30 μM, comparison with 2 reference molecules, Table 3): 102%; Viability (MTT) % stimulated control (B16 melanocytes; 100 μM, comparison with 2 reference molecules, Table 3): 76%; inhibition at 30 µM [1, 4]: 45%; inhibition at 100 µM [1, 5]: 113%
Oc1ccccc1CCOc1ccccc1 [Compound 5]	103	–	67	–	Standardized data Inhibition (%) (melanin) [1, 7]: 49%; Standardized data Inhibition (%) (melanin) [1, 8]: 111%
COc1ccccc1CCOc1ccc(F)cc1 [Compound 16]	87	-33	83	52	–
CCc1ccc(OCCc2ccccc2O)cc1 [Compound 35]	88	112	–	–	Viability (MTT) % stimulated control (B16 melanocytes; 3 μM, B16, 72 h, Table 2): 105%; Viability (MTT) % stimulated control (B16 melanocytes; 10 μM, B16, 72 h, Table 2): 97%; inhibition at 3 µM [1, 2]: 54%; inhibition at 10 µM [1, 2]: 92%

Source: US20150004110A1, “NOVEL ANTI-AGING AND DEPIGMENTING COSMETIC COMPOSITIONS” (DIVERCHIM, priority 2011, published 2015)
